# Several values for one entry are separate records, joined by “and”; a condition that tells them apart may be missing. Equal entries are not always repeated.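 Cultured in 96-well plates, cells were exposed to test compound for 48 hours across five concentrations. Here, GI50 denotes the concentration required for 50% inhibition of growth. At the TGI there is no net growth.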
# What was measured:
# Experiment in all cases: NCI-60 cell line screen, 48 h
# SK-MEL-2 melanoma = tested on: SK-MEL-2 melanoma
# SNB-19 CNS = tested on: SNB-19 CNS
# CCRF-CEM leukemia = tested on: CCRF-CEM leukemia
# ACHN renal = tested on: ACHN renal
# CAKI-1 renal = tested on: CAKI-1 renal
# LOX IMVI melanoma = tested on: LOX IMVI melanoma
# HOP-92 NSCLC = tested on: HOP-92 NSCLC
# MOLT-4 leukemia = tested on: MOLT-4 leukemia
# MDA-MB-231 breast = tested on: MDA-MB-231 breast
# EKVX NSCLC = tested on: EKVX NSCLC
# HCC-2998 colon = tested on: HCC-2998 colon
# IGROV1 ovarian = tested on: IGROV1 ovarian
# 786-0 renal = tested on: 786-0 renal
# RXF 393 renal = tested on: RXF 393 renal
# COLO 205 colon = tested on: COLO 205 colon
# SR leukemia = tested on: SR leukemia
# KM12 colon = tested on: KM12 colon
# OVCAR-5 ovarian = tested on: OVCAR-5 ovarian
# SK-MEL-28 melanoma = tested on: SK-MEL-28 melanoma
# SNB-75 CNS = tested on: SNB-75 CNS
# T-47D breast = tested on: T-47D breast
# U251 CNS = tested on: U251 CNS
# HCT-116 colon = tested on: HCT-116 colon
# OVCAR-4 ovarian = tested on: OVCAR-4 ovarian
# SN12C renal = tested on: SN12C renal
# OVCAR-3 ovarian = tested on: OVCAR-3 ovarian
# DU-145 prostate = tested on: DU-145 prostate
# SF-295 CNS = tested on: SF-295 CNS
# OVCAR-8 ovarian = tested on: OVCAR-8 ovarian
# MDA-N = tested on: MDA-N
# BT-549 breast = tested on: BT-549 breast
# NCI-H23 lung = tested on: NCI-H23 lung
# UACC-62 melanoma = tested on: UACC-62 melanoma
# NCI/ADR-RES ovarian = tested on: NCI/ADR-RES ovarian
# A498 renal = tested on: A498 renal
# HOP-62 NSCLC = tested on: HOP-62 NSCLC
# HS 578T breast = tested on: HS 578T breast
# SF-539 CNS = tested on: SF-539 CNS
# SW-620 colon = tested on: SW-620 colon
# PC-3 prostate = tested on: PC-3 prostate
# UACC-257 melanoma = tested on: UACC-257 melanoma
# SK-OV-3 ovarian = tested on: SK-OV-3 ovarian
# HT29 colon = tested on: HT29 colon
# HL-60(TB) leukemia = tested on: HL-60(TB) leukemia
# A549 NSCLC = tested on: A549 NSCLC
# MALME-3M melanoma = tested on: MALME-3M melanoma
# RPMI-8226 leukemia = tested on: RPMI-8226 leukemia
# TK-10 renal = tested on: TK-10 renal
# K-562 leukemia = tested on: K-562 leukemia
# SK-MEL-5 melanoma = tested on: SK-MEL-5 melanoma
# MDA-MB-435 = tested on: MDA-MB-435
# MCF7 breast = tested on: MCF7 breast
# UO-31 renal = tested on: UO-31 renal
# HCT-15 colon = tested on: HCT-15 colon
# NCI-H460 lung = tested on: NCI-H460 lung
# SF-268 CNS = tested on: SF-268 CNS
# NCI-H226 lung = tested on: NCI-H226 lung
# M14 melanoma = tested on: M14 melanoma
compound,measurement,setting,value
O=C1C(Cl)=C(NCCN2CCOCC2)C(=O)c2ncccc21,GI50,SK-MEL-2 melanoma,2.16 µM
same,TGI,SK-MEL-2 melanoma,4.37 µM
same,GI50,SNB-19 CNS,1.99 µM
same,TGI,SNB-19 CNS,3.15 µM and 4.01 µM
same,GI50,CCRF-CEM leukemia,2.34 µM
same,TGI,CCRF-CEM leukemia,2.68 µM and 5.29 µM
same,GI50,ACHN renal,1.45 µM
same,TGI,ACHN renal,7.29 µM and 2.91 µM
same,GI50,CAKI-1 renal,1.92 µM
same,TGI,CAKI-1 renal,3.72 µM
same,GI50,LOX IMVI melanoma,0.905 µM
same,TGI,LOX IMVI melanoma,3.44 µM and 2.55 µM
same,TGI,HOP-92 NSCLC,3.84 µM and 5.47 µM
same,GI50,MOLT-4 leukemia,2.24 µM
same,TGI,MOLT-4 leukemia,4.01 µM and 5.27 µM
same,TGI,MDA-MB-231 breast,5.02 µM and 3.77 µM
same,TGI,EKVX NSCLC,3.41 µM and 3.6 µM
same,GI50,HCC-2998 colon,1.73 µM
same,TGI,HCC-2998 colon,2.85 µM and 3.47 µM
same,GI50,IGROV1 ovarian,1.71 µM
same,TGI,IGROV1 ovarian,3.73 µM and 3.4 µM
same,GI50,786-0 renal,2.5 µM
same,TGI,786-0 renal,2.81 µM and 7.83 µM
same,GI50,RXF 393 renal,1.66 µM
same,TGI,RXF 393 renal,3.38 µM and 3.06 µM
same,GI50,COLO 205 colon,1.61 µM
same,TGI,COLO 205 colon,3.43 µM
same,GI50,SR leukemia,2.01 µM
same,TGI,SR leukemia,5.61 µM
same,GI50,KM12 colon,3.55 µM
same,TGI,KM12 colon,3.1 µM and 16.1 µM
same,TGI,OVCAR-5 ovarian,3.59 µM and 3.56 µM
same,TGI,SK-MEL-28 melanoma,3.29 µM
same,GI50,SNB-75 CNS,1.67 µM
same,TGI,SNB-75 CNS,2.85 µM and 3.58 µM
same,GI50,T-47D breast,1.83 µM
same,TGI,T-47D breast,5.74 µM and 4.49 µM
same,GI50,U251 CNS,1.87 µM
same,TGI,U251 CNS,3.12 µM and 3.3 µM
same,TGI,HCT-116 colon,3.51 µM and 3.58 µM
same,GI50,OVCAR-4 ovarian,1.85 µM
same,TGI,OVCAR-4 ovarian,3.88 µM
same,GI50,SN12C renal,1.93 µM
same,TGI,SN12C renal,3.2 µM and 3.84 µM
same,TGI,OVCAR-3 ovarian,3.69 µM and 3.01 µM
same,TGI,DU-145 prostate,3.11 µM and 3.14 µM
same,TGI,SF-295 CNS,3.33 µM and 3.3 µM
same,TGI,OVCAR-8 ovarian,3.79 µM and 3.29 µM
same,TGI,MDA-N,0.389 µM
same,TGI,BT-549 breast,3.21 µM and 3.03 µM
same,GI50,NCI-H23 lung,1.25 µM
same,TGI,NCI-H23 lung,3.75 µM and 3.52 µM
same,GI50,UACC-62 melanoma,1.15 µM
same,TGI,UACC-62 melanoma,3.52 µM and 2.61 µM
same,GI50,NCI/ADR-RES ovarian,4.6 µM
same,TGI,NCI/ADR-RES ovarian,30.8 µM
same,GI50,A498 renal,1.91 µM
same,TGI,A498 renal,7.65 µM and 10.9 µM
same,GI50,HOP-62 NSCLC,1.77 µM
same,TGI,HOP-62 NSCLC,4.46 µM and 3.36 µM
same,GI50,HS 578T breast,3.39 µM
same,TGI,HS 578T breast,4.97 µM and 19 µM
same,TGI,SF-539 CNS,3.33 µM
same,GI50,SW-620 colon,2.45 µM
same,TGI,SW-620 colon,6.42 µM and 6.22 µM
same,GI50,PC-3 prostate,4.26 µM
same,TGI,PC-3 prostate,18.7 µM
same,GI50,UACC-257 melanoma,1.37 µM
same,TGI,UACC-257 melanoma,3.13 µM and 2.69 µM
same,GI50,SK-OV-3 ovarian,2.26 µM
same,TGI,SK-OV-3 ovarian,3.36 µM and 7.23 µM
same,TGI,HT29 colon,6.74 µM
same,GI50,HL-60(TB) leukemia,1.43 µM
same,TGI,HL-60(TB) leukemia,4.44 µM
same,TGI,A549 NSCLC,4.18 µM and 3.87 µM
same,GI50,MALME-3M melanoma,1.13 µM
same,TGI,MALME-3M melanoma,3.07 µM and 2.63 µM
same,GI50,RPMI-8226 leukemia,2.72 µM
same,TGI,RPMI-8226 leukemia,9.23 µM
same,GI50,TK-10 renal,16.5 µM
same,TGI,TK-10 renal,3.44 µM and 30.3 µM
same,GI50,K-562 leukemia,1.67 µM
same,TGI,K-562 leukemia,3.67 µM and 4.61 µM
same,GI50,SK-MEL-5 melanoma,1.72 µM
same,TGI,SK-MEL-5 melanoma,2.32 µM and 3.16 µM
same,GI50,MDA-MB-435,0.267 µM
same,TGI,MDA-MB-435,0.372 µM and 0.686 µM
same,GI50,MCF7 breast,1.28 µM
same,TGI,MCF7 breast,3.4 µM and 3.31 µM
same,GI50,UO-31 renal,1.28 µM
same,TGI,UO-31 renal,3.03 µM and 2.61 µM
same,GI50,HCT-15 colon,1.68 µM
same,TGI,HCT-15 colon,4.17 µM and 3.62 µM
same,GI50,NCI-H460 lung,1.95 µM
same,TGI,NCI-H460 lung,3.23 µM and 5.37 µM
same,GI50,SF-268 CNS,3.8 µM
same,TGI,SF-268 CNS,4.27 µM and 15.5 µM
same,TGI,NCI-H226 lung,5.14 µM and 3.74 µM
same,TGI,M14 melanoma,3.17 µM and 3.25 µM
